The text below walks through data of patent US8871753B2, “Macrocyclic compounds and their use as kinase inhibitors” (Incyte Corporation, priority 2008, dated 2014).

Holding throughout (format): biochemical
Assay [1] addresses T1, human JAK2 (a.a. 828-1132) (Homo sapiens, UniProt O60674).
T1 construct: JAK2 (a.a. 828-1132); His tag (N); made in house; host or cells: insect cells (baculovirus)
The assay can be described thus: In vitro JAK kinase assay (HTRF, phosphorylation of a biotinylated peptide), JAK2. Particulars: Table B1. The essentials: (§1)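 Kinase reactions ran at room temperature for 1 h with ATP matched per isoform (JAK1 90 μM, JAK2 30 μM, JAK3 3 μM). After an EDTA stop, the phosphorylated biotin-peptide was read by HTRF using Eu-Py20 and SA-APC after 40 min binding.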
(In general: TR-FRET usually uses a lanthanide donor and a delayed reading to cut background.)

Assay [2] has as its target TYK2 (Homo sapiens, UniProt P29597). The assay can be described thus: TYK2 kinase inhibition (Table A1). Particulars: Table B1.
In assay [3] the target is T2, Recombinant Human Anaplastic Lymphoma Kinase (Homo sapiens, UniProt Q9UM73).
T2 construct: purchased Invitrogen, Carlsbad, Calif
The assay can be described thus: ALK HTRF kinase assay. Particulars: compound at a concentration of 500 nM or 1 mM (not specified); cells shown as percentage. A digest of the protocol: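 TR-FRET read-out (Eu anti-pTyr antibody + streptavidin-APC) of biotin-peptide phosphorylation by recombinant human enzyme; IC50 by sigmoidal fit with top/bottom baselines and Hill slope.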

The target of assay [4] is T3, human JAK3 (a.a. 781-1124) (Homo sapiens, UniProt P52333).
T3 construct: JAK3 (a.a. 781-1124); His tag (N); made in house; host or cells: insect cells (baculovirus)
The assay can be described thus: In vitro JAK kinase assay (HTRF, phosphorylation of a biotinylated peptide), JAK3. The note with it: Table B1. The essentials: as §1

In assay [5] the target is T4, human JAK1 (a.a. 837-1142) (Homo sapiens, UniProt P23458).
T4 construct: human JAK1 (a.a. 837-1142); His tag (N); made in house; host or cells: insect cells (baculovirus)
The assay can be described thus: In vitro JAK kinase assay (HTRF, phosphorylation of a biotinylated peptide), JAK1. The note with it: Table B1; read-out: JAK1 IC50. A digest of the protocol: as §1

Where a name gives a salt, the structure may show the parent alone.

T2 sequence (Q9UM73 19-1620): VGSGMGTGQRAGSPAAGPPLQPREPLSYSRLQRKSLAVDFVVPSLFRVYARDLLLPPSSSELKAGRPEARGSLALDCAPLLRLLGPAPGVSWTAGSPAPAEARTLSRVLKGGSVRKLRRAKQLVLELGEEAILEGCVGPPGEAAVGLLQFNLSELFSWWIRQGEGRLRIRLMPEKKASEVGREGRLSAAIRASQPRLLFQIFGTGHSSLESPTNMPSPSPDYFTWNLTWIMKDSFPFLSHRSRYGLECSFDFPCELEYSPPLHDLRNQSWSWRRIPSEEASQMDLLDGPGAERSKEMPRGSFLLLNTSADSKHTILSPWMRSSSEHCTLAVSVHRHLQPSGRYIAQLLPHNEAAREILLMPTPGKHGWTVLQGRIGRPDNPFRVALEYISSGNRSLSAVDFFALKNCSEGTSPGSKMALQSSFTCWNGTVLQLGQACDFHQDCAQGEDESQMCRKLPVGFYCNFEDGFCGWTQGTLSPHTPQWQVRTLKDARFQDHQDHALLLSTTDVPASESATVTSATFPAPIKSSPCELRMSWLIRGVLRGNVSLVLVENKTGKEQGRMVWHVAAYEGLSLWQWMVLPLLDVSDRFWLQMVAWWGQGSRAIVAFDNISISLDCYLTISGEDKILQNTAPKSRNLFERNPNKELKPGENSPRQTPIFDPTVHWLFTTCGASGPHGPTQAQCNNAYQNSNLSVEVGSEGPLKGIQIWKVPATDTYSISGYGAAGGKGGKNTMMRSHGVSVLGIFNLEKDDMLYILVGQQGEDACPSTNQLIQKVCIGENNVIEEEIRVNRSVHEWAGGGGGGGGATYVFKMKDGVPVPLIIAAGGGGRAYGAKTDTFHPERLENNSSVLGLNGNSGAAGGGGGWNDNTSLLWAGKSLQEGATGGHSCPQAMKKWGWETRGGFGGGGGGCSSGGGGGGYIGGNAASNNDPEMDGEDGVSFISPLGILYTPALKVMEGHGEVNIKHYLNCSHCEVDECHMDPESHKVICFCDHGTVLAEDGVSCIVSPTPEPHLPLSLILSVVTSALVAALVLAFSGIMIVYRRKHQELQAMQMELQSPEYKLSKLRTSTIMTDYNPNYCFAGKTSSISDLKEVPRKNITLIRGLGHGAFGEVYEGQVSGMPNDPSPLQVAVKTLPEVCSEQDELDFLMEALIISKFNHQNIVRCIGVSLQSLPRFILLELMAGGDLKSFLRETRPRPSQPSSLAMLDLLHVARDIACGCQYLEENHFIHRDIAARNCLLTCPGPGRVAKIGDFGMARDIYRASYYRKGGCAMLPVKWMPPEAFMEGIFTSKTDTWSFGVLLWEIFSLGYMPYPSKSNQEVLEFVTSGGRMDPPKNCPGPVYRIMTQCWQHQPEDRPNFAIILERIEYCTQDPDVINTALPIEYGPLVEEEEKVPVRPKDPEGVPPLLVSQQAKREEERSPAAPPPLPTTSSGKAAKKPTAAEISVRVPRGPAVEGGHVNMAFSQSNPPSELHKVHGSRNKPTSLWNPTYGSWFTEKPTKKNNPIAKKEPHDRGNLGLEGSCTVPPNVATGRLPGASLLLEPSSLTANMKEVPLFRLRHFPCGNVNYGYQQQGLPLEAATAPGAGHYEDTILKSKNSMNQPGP
T1 sequence (O60674 828-1132): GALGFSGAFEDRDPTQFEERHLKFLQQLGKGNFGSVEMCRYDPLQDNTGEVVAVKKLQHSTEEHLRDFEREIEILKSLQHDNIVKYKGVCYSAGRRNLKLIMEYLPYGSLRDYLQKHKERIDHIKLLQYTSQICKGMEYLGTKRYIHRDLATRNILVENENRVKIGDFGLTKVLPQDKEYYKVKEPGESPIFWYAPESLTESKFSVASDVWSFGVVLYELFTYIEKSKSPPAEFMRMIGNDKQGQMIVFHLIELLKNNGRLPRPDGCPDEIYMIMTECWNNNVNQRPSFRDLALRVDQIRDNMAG
Chain of TYK2 (P29597 whole entry): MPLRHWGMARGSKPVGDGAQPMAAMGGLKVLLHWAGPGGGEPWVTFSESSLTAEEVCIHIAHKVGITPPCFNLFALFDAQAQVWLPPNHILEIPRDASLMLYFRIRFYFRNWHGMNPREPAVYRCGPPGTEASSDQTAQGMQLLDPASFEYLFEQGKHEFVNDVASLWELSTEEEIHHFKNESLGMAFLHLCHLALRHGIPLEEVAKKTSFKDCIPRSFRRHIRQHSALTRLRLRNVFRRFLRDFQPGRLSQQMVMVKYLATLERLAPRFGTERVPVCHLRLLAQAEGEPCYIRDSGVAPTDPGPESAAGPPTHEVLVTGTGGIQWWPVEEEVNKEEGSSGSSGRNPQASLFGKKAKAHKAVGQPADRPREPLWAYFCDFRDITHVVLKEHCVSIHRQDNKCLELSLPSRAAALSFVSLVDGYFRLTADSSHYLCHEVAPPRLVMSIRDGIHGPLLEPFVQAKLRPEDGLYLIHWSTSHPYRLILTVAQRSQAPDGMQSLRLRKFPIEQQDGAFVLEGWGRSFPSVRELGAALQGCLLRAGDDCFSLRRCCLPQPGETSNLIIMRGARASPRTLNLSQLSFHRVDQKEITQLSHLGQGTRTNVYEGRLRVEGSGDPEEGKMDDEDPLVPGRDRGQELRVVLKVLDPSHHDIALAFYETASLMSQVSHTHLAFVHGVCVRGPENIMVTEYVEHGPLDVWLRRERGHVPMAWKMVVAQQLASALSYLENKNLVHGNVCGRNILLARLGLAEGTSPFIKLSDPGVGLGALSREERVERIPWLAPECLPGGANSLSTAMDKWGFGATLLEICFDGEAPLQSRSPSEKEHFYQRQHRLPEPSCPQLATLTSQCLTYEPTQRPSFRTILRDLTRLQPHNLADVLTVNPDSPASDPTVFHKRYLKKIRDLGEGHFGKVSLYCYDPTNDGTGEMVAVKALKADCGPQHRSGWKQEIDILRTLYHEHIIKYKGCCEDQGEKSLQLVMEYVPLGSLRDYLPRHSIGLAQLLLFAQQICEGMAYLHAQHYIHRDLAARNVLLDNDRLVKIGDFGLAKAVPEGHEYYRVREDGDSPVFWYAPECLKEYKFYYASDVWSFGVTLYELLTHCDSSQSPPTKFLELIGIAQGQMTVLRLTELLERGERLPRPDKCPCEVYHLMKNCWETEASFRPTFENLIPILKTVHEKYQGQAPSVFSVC
T4 sequence (P23458 849-1154): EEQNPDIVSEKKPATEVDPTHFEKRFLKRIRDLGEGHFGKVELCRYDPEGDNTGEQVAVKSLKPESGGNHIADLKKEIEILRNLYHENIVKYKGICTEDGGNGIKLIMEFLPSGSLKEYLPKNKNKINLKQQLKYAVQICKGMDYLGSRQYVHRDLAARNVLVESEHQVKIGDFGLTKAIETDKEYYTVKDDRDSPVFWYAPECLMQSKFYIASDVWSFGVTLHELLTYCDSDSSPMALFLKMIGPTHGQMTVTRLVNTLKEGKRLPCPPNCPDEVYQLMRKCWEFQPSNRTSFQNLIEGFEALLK
T3 sequence (P52333 781-1124): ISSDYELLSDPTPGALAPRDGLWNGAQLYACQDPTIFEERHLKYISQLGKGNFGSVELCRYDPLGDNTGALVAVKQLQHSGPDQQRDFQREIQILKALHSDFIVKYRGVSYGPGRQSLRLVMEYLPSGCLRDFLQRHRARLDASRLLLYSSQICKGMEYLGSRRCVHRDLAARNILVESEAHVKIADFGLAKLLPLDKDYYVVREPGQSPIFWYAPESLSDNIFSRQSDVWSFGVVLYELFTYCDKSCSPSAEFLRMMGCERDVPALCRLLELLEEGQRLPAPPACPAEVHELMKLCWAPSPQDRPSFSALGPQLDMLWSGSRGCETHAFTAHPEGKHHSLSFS

A word on the IC50: it is the point on the concentration scale where inhibition reaches its midpoint. `CC(=O)Nc1ccc(S(=O)(=O)Nc2ccc3cc2CCc2cccc(c2)Nc2ncc(Cl)c(n2)N3)cc1` [Example B161, N-[4-({[6-Chloro-2,4,8,22-tetraazatetracyclo[14.3.1.1(3,7).1(9,13)]docosa-1(20),3(22),4,6,9(21),10,12,16,18-nonaen-12-yl]amino}sulfonyl)phenyl]acetamide trifluoroacetate]: the IC50 came out at 1.1 nM in assay [1], 2.6 nM in assay [2], 8.5 nM in assay [4] and 1.6 nM in assay [5]. For the same compound, the “ALK % of inhibition at a concentration of 500 nM or 1 mM” value (shortened to “ALK % of inhibition”) in assay [3] was 58%.

With `O=S(=O)(Nc1ccc2cc1CCc1cccc(c1)Nc1ncc(Cl)c(n1)N2)c1ccc(C(F)(F)F)cc1` [Example B162, N-[6-Chloro-2,4,8,22-tetraazatetracyclo[14.3.1.1(3,7).1(9,13)]docosa-1(20), 3(22),4,6,9(21),10,12,16,18-nonaen-12-yl]-4-(trifluoromethyl)benzenesulfonamide trifluoroacetate], the IC50 in assay [1] amounted to 2.7 nM; in assay [2] it was 4.3 nM; in assay [4] it was 26 nM; in assay [5], 1.7 nM. Moreover, the “ALK % of inhibition” value in assay [3] was found to be 16%.

With `O=S(=O)(Nc1ccc2cc1CCc1cccc(c1)Nc1ncc(Cl)c(n1)N2)c1cccc(C(F)(F)F)c1` [Example B163, N-[6-Chloro-2,4,8,22-tetraazatetracyclo[14.3.1.1(3,7).1(9,13)]docosa-1(20), 3(22),4,6,9(21),10,12,16,18-nonaen-12-yl]-3-(trifluoromethyl)benzenesulfonamide trifluoroacetate], the IC50 turned out to be 0.24 nM in assay [1], 0.97 nM in assay [2], 1.1 nM in assay [4] and 0.54 nM in assay [5]. Further, the “ALK % of inhibition” value in assay [3] worked out at 80%.

For `CN1CCOc2cc(S(=O)(=O)Nc3ccc4cc3CCc3cccc(c3)Nc3ncc(Cl)c(n3)N4)ccc21` [Example B165, N-[6-Chloro-2,4,8,22-tetraazatetracyclo[14.3.1.1(3,7).1(9,13)]docosa-1(20),3(22),4,6,9(21),10,12,16,18-nonaen-12-yl]-4-methyl-3,4-dihydro-2H-1,4-benzoxazine-7-sulfonamide trifluoroacetate], the IC50 amounted to 10 nM in assay [1], 20 nM in assay [2], 83 nM in assay [4] and 13 nM in assay [5]. The “ALK % of inhibition” value in assay [3] turned out to be 10%.

Consider `CC(C)(C)OC(=O)N1CC[C@H](NC(=O)Nc2ccc3cc2CCc2cccc(c2)Nc2ncc(Cl)c(n2)N3)C1` [Example B166, tert-Butyl (3S)-3-[({[6-chloro-2,4,8,22-tetraazatetracyclo[14.3.1.1(3,7).1(9,13)]docosa-1(20),3(22),4,6,9(21),10,12,16,18-nonaen-12-yl]amino}carbonyl)amino]pyrrolidine-1-carboxylate], for which the half-inhibitory concentration (IC50) in assay [1] came out at 7.4 nM; in assay [2], 17 nM; in assay [4], 39 nM; in assay [5], 3.6 nM. The “ALK % of inhibition” value in assay [3] came out at 15%.

Consider `O=C(Nc1ccc2cc1CCc1cccc(c1)Nc1ncc(Cl)c(n1)N2)N[C@H]1CCNC1` [Example B167, N-[6-Chloro-2,4,8,22-tetraazatetracyclo[14.3.1.1(3,7).1(9,13)]docosa-1(20),3(22),4,6,9(21),10,12,16,18-nonaen-12-yl]-N′-[(3S)-pyrrolidin-3-yl]urea bis(trifluoroacetate)], for which the IC50 in assay [1] is 12 nM; in assay [2], 30 nM; in assay [4] it was 43 nM; in assay [5] it was 3.7 nM. Further, in assay [3], the “ALK % of inhibition” value was 17%.

Regarding `CC(=O)N1CC[C@H](NC(=O)Nc2ccc3cc2CCc2cccc(c2)Nc2ncc(Cl)c(n2)N3)C1` [Example B168, N-[(3S)-1-Acetylpyrrolidin-3-yl]-N′-[6-chloro-2,4,8,22-tetraazatetracyclo[14.3.1.1(3,7).1(9,13)]docosa-1(20),3(22),4,6,9(21),10,12,16,18-nonaen-12-yl]urea trifluoroacetate], the IC50 in assay [1] was found to be 12 nM; in assay [2], 17 nM; in assay [4], 67 nM; in assay [5] it was 2.8 nM. Besides, in assay [3], the “ALK % of inhibition” value stood at 21%.

For the compound `CNC(=O)N1CC[C@H](NC(=O)Nc2ccc3cc2CCc2cccc(c2)Nc2ncc(Cl)c(n2)N3)C1` [Example B169, (3S)-3-[({[6-Chloro-2,4,8,22-tetraazatetracyclo[14.3.1.1(3,7).1(9,13)]docosa-1(20),3(22),4,6,9(21),10,12,16,18-nonaen-12-yl]amino}carbonyl)amino]-N-methylpyrrolidine-1-carboxamide Trifluoracetate], the IC50 came to 12 nM in assay [1], 26 nM in assay [2], 47 nM in assay [4] and 3.3 nM in assay [5]. Moreover, the “ALK % of inhibition” value in assay [3] was 17%.

In the case of `O=C(Nc1ccc2cc1CCc1cccc(c1)Nc1ncc(Cl)c(n1)N2)N[C@H]1CCN(C(=O)c2ccccc2)C1` [Example B170, N-[(3S)-1-Benzoylpyrrolidin-3-yl]-N′-[6-chloro-2,4,8,22-tetraazatetracyclo[14.3.1.1(3,7).1(9,13)]docosa-1(20),3(22),4,6,9(21),10,12,16,18-nonaen-12-yl]urea trifluoroacetate], the IC50 in assay [1] turned out to be 17 nM; in assay [2], 34 nM; in assay [4], 228 nM; in assay [5], 1.6 nM. For the same compound, the “ALK % of inhibition” value in assay [3] was 12%.

Turning to `O=C(Nc1ccc2cc1CCc1cccc(c1)Nc1ncc(Cl)c(n1)N2)N[C@H]1CCN(C(=O)c2cccnc2)C1` [Example B171, N-[6-Chloro-2,4,8,22-tetraazatetracyclo[14.3.1.1(3,7).1(9,13)]docosa-1(20),3(22),4,6,9(21),10,12,16,18-nonaen-12-yl]-N′-[(3S)-1-(pyridin-3-ylcarbonyl)pyrrolidin-3-yl]urea bis(trifluoroacetate)], the IC50 in assay [1] stood at 12 nM; in assay [2], 30 nM; in assay [4], 51 nM; in assay [5], 2.8 nM. In assay [3], the “ALK % of inhibition” value worked out at 15%.

Take `CS(=O)(=O)N1CC[C@H](NC(=O)Nc2ccc3cc2CCc2cccc(c2)Nc2ncc(Cl)c(n2)N3)C1` [Example B172, N-[6-Chloro-2,4,8,22-tetraazatetracyclo[14.3.1.1(3,7).1(9,13)]docosa-1(20),3(22),4,6,9(21),10,12,16,18-nonaen-12-yl]-N′-[(3S)-1-(methylsulfonyl)pyrrolidin-3-yl]urea trifluoroacetate]: the IC50 in assay [1] came out at 1.1 nM; in assay [2], 2.6 nM; in assay [4], 17 nM; in assay [5], 0.82 nM. In addition, the “ALK % of inhibition” value in assay [3] is 24%.

`O=C(Nc1ccc2cc1CCc1cccc(c1)Nc1ncc(Cl)c(n1)N2)N[C@H]1CCN(Cc2ccccc2)C1` [Example B173, N-[(3S)-1-Benzylpyrrolidin-3-yl]-N′-[6-chloro-2,4,8,22-tetraazatetracyclo[14.3.1.1(3,7).1(9,13)]docosa-1(20),3(22),4,6,9(21),10,12,16,18-nonaen-12-yl]urea bis(trifluoroacetate)]: the IC50 in assay [1] is 23 nM; in assay [2], 55 nM; in assay [4], 163 nM; in assay [5], 3.5 nM. In addition, the “ALK % of inhibition” value in assay [3] stood at 14%.

In the case of `CC(C)(C)OC(=O)N1CC[C@@H](NC(=O)Nc2ccc3cc2CCc2cccc(c2)Nc2ncc(Cl)c(n2)N3)C1` [Example B174, tert-Butyl (3R)-3-[({[6-chloro-2,4,8,22-tetraazatetracyclo[14.3.1.1(3,7).1(9,13)]docosa-1(20),3(22),4,6,9(21),10,12,16,18-nonaen-12-yl]amino}carbonyl)amino]pyrrolidine-1-carboxylate], the IC50 came to 27 nM in assay [1], 62 nM in assay [2], 124 nM in assay [4] and 15 nM in assay [5]. In addition, the “ALK % of inhibition” value in assay [3] is listed as 12%.

For the compound `O=C(Nc1ccc2cc1CCc1cccc(c1)Nc1ncc(Cl)c(n1)N2)N[C@@H]1CCNC1` [Example B175, N-[6-Chloro-2,4,8,22-tetraazatetracyclo[14.3.1.1(3,7).1(9,13)]docosa-1(20),3(22),4,6,9(21),10,12,16,18-nonaen-12-yl]-N′-[(3R)-pyrrolidin-3-yl]urea dihydrochloride], the 50% inhibitory concentration (IC50) in assay [1] worked out at 18 nM; in assay [2] it was 31 nM; in assay [4], 69 nM; in assay [5] it was 9 nM. In addition, the “ALK % of inhibition” value in assay [3] was determined as 18%.

Consider `O=C(Nc1ccc2cc1CCc1cccc(c1)Nc1ncc(Cl)c(n1)N2)N[C@@H]1CCN(C(=O)c2ccccc2)C1` [Example B176, N-[(3R)-1-Benzoylpyrrolidin-3-yl]-N′-[6-chloro-2,4,8,22-tetraazatetracyclo[14.3.1.1(3,7).1(9,13)]docosa-1(20),3(22),4,6,9(21),10,12,16,18-nonaen-12-yl]urea trifluoroacetate], for which the IC50 worked out at 7.8 nM in assay [1], 25 nM in assay [2], 60 nM in assay [4] and 5.7 nM in assay [5]. Also, the “ALK % of inhibition” value in assay [3] came out at 19%.
